Data published in patent publication US20240148733A1, “COMBINATION THERAPY” (Genentech, Inc., priority 2021, published 2024).

Legend:
Test in all cases: Drug combination assay (CellTiter-Glo cell viability)
Type in all cases: cell-based
Settings in all cases: six days, 96-wells
[1] = test system: H2030 cells (KRAS G12C)
Protocol: (§1) Cells were seeded in either 96-well or 384-well plates 16 h before treatment at a density of 1000 cells per well. Then, cells were treated with varying concentrations of compound(s) as indicated in FIGS. 1-8 (384-wells) and FIGS. 10-105 (96-wells), either a single agent or in combination, for six days. The relative number of viable cells was estimated using CellTiter-Glo Luminescent Cell Viability Assay (Promega, G7573). Total luminescence was detected on a Wallac Multilabel Reader (Perkin-Elmer).

[2] = test system: H358 resistant cells (KRAS G12C)
Protocol: as §1

[3] = test system: H358 parental cells (KRAS G12C)
Protocol: as §1

[4] = combination with Compound K1 (a KRAS inhibitor)
[5] = combination with Compound K2 (a KRAS inhibitor)
[6] = combination with Compound K3 (a KRAS inhibitor)
[7] = combination with Compound K4 (a KRAS inhibitor)

SMILES	% inhibition of H2030 cells (KRAS G12C) [1, 4]	% inhibition of H2030 cells (KRAS G12C) [1, 5]	% inhibition of H2030 cells (KRAS G12C) [1, 6]	% inhibition of H2030 cells (KRAS G12C) [1, 7]	combination effect on cell viability (qualitative) [2, 4]	combination effect on cell viability (qualitative) [2, 5]	combination effect on cell viability (qualitative) [2, 6]	combination effect on cell viability (qualitative) [2, 7]	% inhibition of H358 parental cells (KRAS G12C) [3, 4]	% inhibition of H358 parental cells (KRAS G12C) [3, 5]	% inhibition of H358 parental cells (KRAS G12C) [3, 6]	% inhibition of H358 parental cells (KRAS G12C) [3, 7]
Cc1nccnc1-c1nn2c(=O)cc(-c3ccc(C4CCCCC4)cc3)[nH]c2c1C(=O)N1C[C@H](CF)[C@@H]1C (racemic) [Compound T9, 5-(4-cyclohexylphenyl)-2-(3-methylpyrazin-2-yl)-3-[rac-(2S,3S)-3-(fluoromethyl)-2-methyl-azetidine-1-carbonyl]-4H-pyrazolo[1,5-a]pyrimidin-7-one]	sensitizes cells resistant to Compound K1	sensitizes cells resistant to Compound K2	sensitizes cells resistant to Compound K3	sensitizes cells resistant to Compound K4	sensitizes cells resistant to Compound K1	sensitizes cells resistant to Compound K2	sensitizes cells resistant to Compound K3	sensitizes cells resistant to Compound K4	sensitizes cells resistant to Compound K1	sensitizes cells resistant to Compound K2	sensitizes cells resistant to Compound K3	sensitizes cells resistant to Compound K4
C[C@H](NC(=O)c1ccc2c(-c3ccc(C(F)(F)F)cc3)cccc2c1)c1ccccn1 [Compound T7, N-[(1S)-1-(2-pyridyl)ethyl]-5-[4-(trifluoromethyl)phenyl]naphthalene-2-carboxamide]	sensitizes cells resistant to Compound K1	sensitizes cells resistant to Compound K2	sensitizes cells resistant to Compound K3	sensitizes cells resistant to Compound K4	sensitizes cells resistant to Compound K1	sensitizes cells resistant to Compound K2	sensitizes cells resistant to Compound K3	sensitizes cells resistant to Compound K4	sensitizes cells resistant to Compound K1	sensitizes cells resistant to Compound K2	sensitizes cells resistant to Compound K3	sensitizes cells resistant to Compound K4
C[C@@H](NC(=O)c1ccc2c(Oc3ccc(C(F)(F)F)cc3)cccc2c1)c1cccc(N)n1 [Compound T6, N-[(1R)-1-(6-amino-2-pyridyl)ethyl]-5-[4-(trifluoromethyl)phenoxy]naphthalene-2-carboxamide]	sensitizes cells resistant to Compound K1	sensitizes cells resistant to Compound K2	sensitizes cells resistant to Compound K3	sensitizes cells resistant to Compound K4	sensitizes cells resistant to Compound K1	sensitizes cells resistant to Compound K2	sensitizes cells resistant to Compound K3	sensitizes cells resistant to Compound K4	sensitizes cells resistant to Compound K1	sensitizes cells resistant to Compound K2	sensitizes cells resistant to Compound K3	sensitizes cells resistant to Compound K4
